For orientation: inhibition means the drop in the measured response relative to a control, in per cent. A higher inhibition goes with a response far below the control.

Each structure is given as a SMILES string.

Experiment in all cases: crystal violet assay, antiproliferative effect against tumor cells
What all share (format): cell-based

Test [1] deals with pancreatic tumor cell line Colo357. The conditions noted are these: for inhibition at 1 µg/mL: Homo sapiens, Colo357, at 1 μg/mL, on average. As for the experimental part:
(§1) 4) Determination of the Antiproliferative Effect Against Tumor Cells
(§2) The substances Scopularid A and Scopularid B have shown significant inhibitory action against tumor cell lines, in particular pancreatic tumor cell lines Colo357 and Panc89 and also intestinal tumor cell lines HT29 (on average an inhibition between 25-50% at 1 μg/mL). This activity was determined using the crystal violet assay (Siegmund, D. et al. “Death receptor-induced signalling pathways are differentially regulated by gamma interferon upstream of caspase 8 processing.” Mol. Cell. Biol. 2005; 25: 6363-6379).

Test [2] relates to intestinal tumor cell line HT29. The conditions noted are these: Homo sapiens, HT-29; HT29, at 1 μg/mL, on average. On the procedure: as §1, §2
Test [3] deals with pancreatic tumor cell line Panc89. The conditions noted are these: Panc89, at 1 μg/mL, on average. On the procedure: as §1, §2

With `CCCCCCC(C)C1CC(=O)NCC(=O)N[C@@H](C(C)C)C(=O)N[C@H](CC(C)C)C(=O)N[C@@H](C)C(=O)N[C@@H](Cc2ccccc2)C(=O)O1` (stereo partly shown) [Scopularid A], the inhibition at 1 µg/mL in test [1], in test [2] and in test [3] was 25 to 50% in each case.
With `CCCCC(C)C1CC(=O)NCC(=O)N[C@@H](C(C)C)C(=O)N[C@H](CC(C)C)C(=O)N[C@@H](C)C(=O)N[C@@H](Cc2ccccc2)C(=O)O1` (stereo partly shown) [Scopularid B], the inhibition at 1 µg/mL in test [1], in test [2] and in test [3] was 25 to 50% throughout. In addition, the “antiproliferative effect against tumor cells (in words)” value in test [1] (tumor cell lines, in particular Colo357) is reported as “significant inhibitive effect”.
